Legend:
SF-268 = assay: panel of 60 human tumor cell lines, growth inhibition (CNS Cancer); conditions: SF-268
NCI-H226 = assay: panel of 60 human tumor cell lines, growth inhibition (Non-Small Cell Lung Cancer); conditions: NCI-H226
SW-620 = assay: panel of 60 human tumor cell lines, growth inhibition (Colon Cancer); conditions: SW-620
K-562 = assay: panel of 60 human tumor cell lines, growth inhibition (Leukemia); conditions: K-562
UO-31 = assay: panel of 60 human tumor cell lines, growth inhibition (Renal Cancer); conditions: UO-31
SNB-19 = assay: panel of 60 human tumor cell lines, growth inhibition (CNS Cancer); conditions: SNB-19
MOLT-4 = assay: panel of 60 human tumor cell lines, growth inhibition (Leukemia); conditions: MOLT-4
SK-MEL-28 = assay: panel of 60 human tumor cell lines, growth inhibition (Melanoma); conditions: SK-MEL-28
HS 578T = assay: panel of 60 human tumor cell lines, growth inhibition (Breast Cancer); conditions: HS 578T
M14 = assay: panel of 60 human tumor cell lines, growth inhibition (Melanoma); conditions: M14

C=C1C(=O)O[C@H]2[C@H]1CC/C(COC(=O)NCCO)=C\CC[C@@]1(C)O[C@@H]21 [JVM 2-50] was tested, and the “Percent Growth” value (SF-268; Log10 Concentration −7.0) was 99%, the “Percent Growth” value (SF-268; Log10 Concentration −8.0) was 99% and the GI50 (SF-268; NCI five dose) was 19.3 µM. For the same molecule, the TGI (SF-268; NCI five dose) was 4.38E−5, the “Percent Growth” value (NCI-H226; Log10 Concentration −4.0) was −37% and the “Percent Growth” value (NCI-H226; Log10 Concentration −5.0) was 67%. The “Percent Growth” value (NCI-H226; Log10 Concentration −6.0) was 91%, the “Percent Growth” value (NCI-H226; Log10 Concentration −7.0) was 96% and the “Percent Growth” value (NCI-H226; Log10 Concentration −8.0) was 93%. The GI50 (NCI-H226; NCI five dose) was 14.6 µM, the TGI (NCI-H226; NCI five dose) was 4.43E−5 and the “Percent Growth” value (SW-620; Log10 Concentration −4.0) was −71%. The “Percent Growth” value (SW-620; Log10 Concentration −5.0) was 93%, the “Percent Growth” value (SW-620; Log10 Concentration −6.0) was 101% and the “Percent Growth” value (SW-620; Log10 Concentration −7.0) was 104%. For the same molecule, the “Percent Growth” value (SW-620; Log10 Concentration −8.0) was 102%, the GI50 (SW-620; NCI five dose) was 18.2 µM and the TGI (SW-620; NCI five dose) was 3.67E−5. The “Percent Growth” value (K-562; Log10 Concentration −4.0) was −25%, the “Percent Growth” value (K-562; Log10 Concentration −5.0) was 23% and the “Percent Growth” value (K-562; Log10 Concentration −6.0) was 100%. The “Percent Growth” value (K-562; Log10 Concentration −7.0) was 110%, the “Percent Growth” value (K-562; Log10 Concentration −8.0) was 119% and the GI50 (K-562; NCI five dose) was 4.51 µM. The TGI (K-562; NCI five dose) was 3.02E−5, the “Percent Growth” value (UO-31; Log10 Concentration −4.0) was −65% and the “Percent Growth” value (UO-31; Log10 Concentration −5.0) was 67%. For the same molecule, the “Percent Growth” value (UO-31; Log10 Concentration −6.0) was 96%, the “Percent Growth” value (UO-31; Log10 Concentration −7.0) was 99% and the “Percent Growth” value (UO-31; Log10 Concentration −8.0) was 95%. The GI50 (UO-31; NCI five dose) was 13.5 µM, the TGI (UO-31; NCI five dose) was 3.23E−5 and the “Percent Growth” value (SNB-19; Log10 Concentration −4.0) was 19%. For the same molecule, the “Percent Growth” value (SNB-19; Log10 Concentration −5.0) was 84%, the “Percent Growth” value (SNB-19; Log10 Concentration −6.0) was 95% and the “Percent Growth” value (SNB-19; Log10 Concentration −7.0) was 93%. For the same molecule, the “Percent Growth” value (SNB-19; Log10 Concentration −8.0) was 99%, the GI50 (SNB-19; NCI five dose) was 32.6 µM and the TGI (SNB-19; NCI five dose) was >1.00E−4. The “Percent Growth” value (MOLT-4; Log10 Concentration −4.0) was −39%, the “Percent Growth” value (MOLT-4; Log10 Concentration −5.0) was 43% and the “Percent Growth” value (MOLT-4; Log10 Concentration −6.0) was 103%. The “Percent Growth” value (MOLT-4; Log10 Concentration −7.0) was 114%, the “Percent Growth” value (MOLT-4; Log10 Concentration −8.0) was 106% and the GI50 (MOLT-4; NCI five dose) was 7.65 µM. The “Percent Growth” value (SK-MEL-28; Log10 Concentration −4.0) was −61%, the “Percent Growth” value (SK-MEL-28; Log10 Concentration −5.0) was 48% and the “Percent Growth” value (SK-MEL-28; Log10 Concentration −6.0) was 99%. The “Percent Growth” value (SK-MEL-28; Log10 Concentration −7.0) was 104%, the “Percent Growth” value (SK-MEL-28; Log10 Concentration −8.0) was 95% and the GI50 (SK-MEL-28; NCI five dose) was 9.33 µM. For the same molecule, the TGI (SK-MEL-28; NCI five dose) was 2.77E−5, the “Percent Growth” value (HS 578T; Log10 Concentration −4.0) was 22% and the “Percent Growth” value (HS 578T; Log10 Concentration −5.0) was 82%. For the same molecule, the “Percent Growth” value (HS 578T; Log10 Concentration −6.0) was 91%, the “Percent Growth” value (HS 578T; Log10 Concentration −7.0) was 88% and the “Percent Growth” value (HS 578T; Log10 Concentration −8.0) was 92%. For the same molecule, the GI50 (HS 578T; NCI five dose) was 34.3 µM, the TGI (HS 578T; NCI five dose) was >1.00E−4 and the “Percent Growth” value (M14; Log10 Concentration −4.0) was −57%. The “Percent Growth” value (M14; Log10 Concentration −5.0) was 56%, the “Percent Growth” value (M14; Log10 Concentration −6.0) was 92% and the “Percent Growth” value (M14; Log10 Concentration −7.0) was 97%. The “Percent Growth” value (M14; Log10 Concentration −8.0) was 91%, the GI50 (M14; NCI five dose) was 11.2 µM and the TGI (M14; NCI five dose) was 3.11E−5.

— patent US9469650B2, “Melampomagnolide B derivatives” (BOARD OF TRUSTEES OF THE UNIVERSITY OF ARKANSAS, priority 2013, dated 2016)
